Data set [1] is described as follows: Moisture uptake over saturated K2SO4 solution at about 100% relative humidity. To be noted: about 25°C, amorphous except for CaCl2.
A short description of data set [2]: Moisture uptake, modified Ph. Eur. 5.11 hygroscopicity method. It counts as physicochemical. The note with it: mass increase during 24h storage over saturated ammonium sulfate solution, 25°C, about 100 mg. Here is the method: It determines the mass increase (% (m/mo)) during a 24h storage period over a saturated ammonium sulfate solution.
The nature of data set [3]: Disintegration and dissolution time of lyophilisates, adjusted Ph. Eur. 7.4 oral lyophilisates method. The note with it: lyophilisate about 1 mg from 12.5 % (m/V) solution, 300 µL TRIS buffer pH 7.4, about 22°C, no stirring. It counts as physicochemical. The protocol:
Disintegration of substances described in Examples 5 and 6 were determined according to the method described in the European Pharmacopoeia 7.4 in monograph "tablets" section "oral lyophilisates". The disintegration time is acceptable if the oral lyophilisate disintegrates within 3 minutes in 200mL of "purified water R" at temperatures between 15°C and 25°C. Herein, disintegration is the loss of the overall structure, whereas dissolution means that the compound is completely dissolved.
This method was adjusted for the small volume lyophilisates which were used here (∼10 µL initial solution which corresponds to a lyophilysate mass of about 1 mg). Therefore the lyophilized product was added to 300 µL of TRIS buffer (adjusted pH 7.4 at 22°C) without any additional manipulation, e.g. shaking or stirring. In addition to the disintegration time the time until the whole product was completely dissolved, i.e. no visible particles detectable, has been determined at about 22°C (22.1 - 22.3 °C during the experiment).
. It was not possible to lyophilize pure amorphous calcium lactate due to rapid solidification and partially crystallization of the solution, which contained also 12.5%(m/V) amorphous calcium lactate. Table 9: Disintegration time and dissolution time for substances

Data set [4] is described as follows: Glass transition of the maximally frozen system Tg' by differential scanning calorimetry. The note with it: solutions contained 12.5% (m/V) of the respective amorphous solid. (In DSC, transitions show as peaks or steps in heat flow.)
Description: Further, the temperature Tg' is the glass transition temperature of the maximally frozen system, i.e. the glass transition of the amorphous phase within an ice matrix (from ultrapure water).
The nature of data set [5]: Solubility, Ph. Eur. 5.11 procedure in TRIS buffer. An excerpt:
Table 3: Categorization of solubility according to Ph. Eur. 7.4

Data set [6] relates to citrated whole blood. Kind of data set: ROTEM ex-tem assay, recalcification with freeze-dried pellets. To be noted: freeze-dried CaCl2 pellets. The protocol: The compatibility with coagulation measurement was determined using the ROTEM® device. The measurement was conducted according to the respective automated ROTEM® sequence. 300 µL citrated whole blood (obtained from healthy individuals) were used for each measurement. The pipetting of the respective liquid reagents was performed according to the sequence or was skipped for the solid reagents. […] Coagulation was initiated using the tissue factor based ex-tem® reagent.
The ex-tem® assay was selected because of the tissue factor coagulation activation and the resulting short clotting times (CT). Therefore it was possible to investigate whether the freeze-dried products containing a high amount of solid would dissolve rapidly enough to assure complete recalcification and clotting times within a normal range.

Data set [7] is described as follows: Hygroscopicity measurement by mass increase in a glove box at relative air humidity > 50%. It counts as physicochemical. To be noted: 1.0g sample, 22.5°C to […], 96 hours, referring to the initial mass. Here is the method:
The hygroscopicity of compounds was measured by weighing (Mettler AT261 "Delta Range" balance) in the samples at the start of the experiment and at certain time points within a total period of 96 hours. The increase in mass (in %) was calculated for each sample as: (mt -mt0)/(mt0) × 100% [formula] • wherein mt is the mass of the sample at a certain time t and Mt0 is the mass of the sample at the start when placing it in the glove box.

A short description of data set [8]: Glass transition temperature Tg by differential scanning calorimetry. The data set is classed as physicochemical. Here is the method: Hydranal® Coulomat AG Oven served as a reagent. About 10 mg of the substance was used for an expected residual moisture between 5 - 10%(m/m) and about 50 - 80 mg were used for an expected moisture content […]. […]
Primary drying was carried out at Tinlet = -30° C / 30mtorr for 15h followed by secondary drying at 40°C / 30mtorr for 6h with a heating rate between the two steps of 0.3 °C/min. The glass transition temperature as well as the residual moisture content were measured after freeze drying for the respective substance.

Consider `CC(O)C(=O)[O-].CC(O)C(=O)[O-].[Ca+2]` (stereo not shown) [CL, calcium lactate], for which the “Uptake rate during 3h storage at 99.9 % rel. humidity (sat. K2SO4 sol.)” value in data set [1] was 0.384 ratio compared to CaCl2. For the same compound, the “Ph. Eur. method Hygroscopicity” value in data set [2] is recorded as 30.28 %(m/mo.
Turning to `O=C([O-])[C@H](O)[C@@H](O)[C@H](O[C@@H]1O[C@H](CO)[C@H](O)[C@H](O)[C@H]1O)[C@H](O)CO.O=C([O-])[C@H](O)[C@@H](O)[C@H](O[C@@H]1O[C@H](CO)[C@H](O)[C@H](O)[C@H]1O)[C@H](O)CO.[Ca+2]` [CLB, calcium lactobionate], in data set [3], the Disintegration time is listed as less than 1 s and the “Dissolution time (mean ± sdv)” value was 13 ± 2 s. Besides, the “Glass transition of the frozen system (Tg')” value (from here on “Glass transition”) in data set [4] was -13.27 °C. The “Uptake rate during 3h storage at 99.9 % rel. humidity (sat. K2SO4 sol.)” value in data set [1] is reported as 0.226 ratio compared to CaCl2. The “Ph. Eur. method Solubility” value in data set [5] (100mg substance, TRIS buffer isotonic pH = 7.4, 25.0°C, visual after 1 min. mixing and 15 min. storage) is given as “very soluble”. The “Calculated solubility Cs” value in data set [5] (category limits of table 3 divided by Mr, 15 min) is on record as “Cs ≥ 1.325 mol/L”. For the same compound, the “Ph. Eur. method Hygroscopicity” value in data set [2] is recorded as 21.08 %(m/mo.
As to `[Ca+2].[Cl-].[Cl-]` [CaCl2, calcium chloride, reference compound], the “Uptake rate during 3h storage at 99.9 % rel. humidity (sat. K2SO4 sol.)” value in data set [1] is given as 1.000 ratio compared to CaCl2. In addition, the “Ph. Eur. method Hygroscopicity” value in data set [2] was “CaCl2 = 113.9%(m/mo”. The “behaviour of freeze-dried pellets (hygroscopicity)” value in data set [6] is “liquefied rapidly”. In addition, in data set [7], the mass increase entry is “over 20%”.
With Calcium lacto ascorbate [CLA], in data set [3], the Disintegration time was less than 1 s and the “Dissolution time (mean ± sdv)” value came to 14 ± 3 s. Besides, the “Glass transition” value in data set [4] was -20.18 °C.
Turning to calcium ascorbate [reference compound], in data set [3], the Disintegration time is listed as less than 1 s and the “Dissolution time (mean ± sdv)” value is 11 ± 1 s. In addition, the “Glass transition” value in data set [4] is -24.61 °C. In addition, the “Ph. Eur. method Hygroscopicity” value in data set [2] is 31.77 %(m/mo.
Turning to calcium ascorbate gluconate [CAG], in data set [3], the Disintegration time is less than 1 s and the “Dissolution time (mean ± sdv)” value stood at 11 ± 2 s. Also, in data set [4], the “Glass transition” value is -15.70 °C. In data set [2], the “Ph. Eur. method Hygroscopicity” value is 19.65 %(m/mo.
Take calcium ascorbate lactobionate [CALB]: in data set [3], the Disintegration time is listed as less than 1 s and the “Dissolution time (mean ± sdv)” value was 12 ± 1 s. The “Glass transition” value in data set [4] is -13.28 °C.
On to “calcium gluconate [CG, reference compound]”, for which, in data set [3], the Disintegration time is less than 1 s and the “Dissolution time (mean ± sdv)” value is reported as 9 ± 1 s. Further, the “Glass transition” value in data set [4] was -11.08 °C. In data set [1], the “Uptake rate during 3h storage at 99.9 % rel. humidity (sat. K2SO4 sol.)” value is recorded as 0.214 ratio compared to CaCl2. Besides, the “Ph. Eur. method Hygroscopicity” value in data set [2] is reported as 20.16 %(m/mo.
For calcium lacto gluconate [CLG ME], in data set [3], the Disintegration time was less than 1 s and the “Dissolution time (mean ± sdv)” value is listed as 19 ± 6 s. Besides, the “Glass transition” value in data set [4] is -11.74 °C. For the same compound, the “Uptake rate during 3h storage at 99.9 % rel. humidity (sat. K2SO4 sol.)” value in data set [1] is on record as 0.204 ratio compared to CaCl2.
In data set [3], calcium lacto lactobionate [CLLB] showed a Disintegration time of less than 1 s. In addition, in data set [3], the “Dissolution time (mean ± sdv)” value was determined as 18 ± 4 s. The “Glass transition” value in data set [4] was -15.58 °C. For the same compound, the “Uptake rate during 3h storage at 99.9 % rel. humidity (sat. K2SO4 sol.)” value in data set [1] is on record as 0.357 ratio compared to CaCl2. For the same compound, the Tg in data set [8] (CLLB ratio 0, moisture content 14 %(m/m)) was 34,39 °C; in data set [8] (CLLB ratio 0, moisture content 5,196 %(m/m)), 112,86 °C; in data set [8] (CLLB ratio 0, moisture content 10,151 %(m/m)), 58,45 °C; in data set [8] (CLLB ratio 34.82, moisture content 0 %(m/m)), 143.05 °C; in data set [8] (CLLB ratio 34.82, moisture content 4.44 %(m/m)) it was 104.03 °C; in data set [8] (CLLB ratio 34.82, moisture content 7.26 %(m/m)), 73.08 °C. Further, the Tg in data set [8] (CLLB ratio 34.82, moisture content 9.86 %(m/m)) was 56.42 °C; in data set [8] (CLLB ratio 34.82, moisture content 11.82 %(m/m)), 47.945 °C; in data set [8] (CLLB ratio 34.82, moisture content 14.60 %(m/m)), 32.13 °C; in data set [8] (CLLB ratio 82.77, moisture content 0 %(m/m)), 148.05 °C; in data set [8] (CLLB ratio 82.77, moisture content 5.19 %(m/m)), 96.38 °C; in data set [8] (CLLB ratio 82.77, moisture content 6.35 %(m/m)) it was 79.84 °C. Moreover, the Tg in data set [8] (CLLB ratio 82.77, moisture content 6.93 %(m/m)) worked out at 73.34 °C; in data set [8] (CLLB ratio 82.77, moisture content 8.00 %(m/m)), 67.39 °C; in data set [8] (CLLB ratio 82.77, moisture content 14.49 %(m/m)) it was 34.39 °C; in data set [8] (CLLB ratio %(m(CL)/m(CLB)) = 100, moisture content 0 %(m/m) (annealed)), 140.08 °C; in data set [8] (CLLB ratio %(m(CL)/m(CLB)) = 100, moisture content 5.10 %(m/m)) it was 82.46 °C; in data set [8] (CLLB ratio %(m(CL)/m(CLB)) = 100, moisture content 8.20 %(m/m)), 64.81 °C. Also, the Tg in data set [8] (CLLB ratio %(m(CL)/m(CLB)) = 100, moisture content 13.87 %(m/m)) is 30.65 °C. For the same compound, in data set [2], the “Ph. Eur. method Hygroscopicity” value is recorded as 19.18 %(m/mo.
calcium lacto pantothenate [CLP]: in data set [3], the Disintegration time was less than 1 s and the “Dissolution time (mean ± sdv)” value came out at 8 ± 1 s. Besides, the “Glass transition” value in data set [4] was -23.02 °C.
For “calcium lactobionate pantothenate [CLBP]”, in that order: less than 1 s, 10 ± 2 s and -18.84 °C.
In the case of “calcium pantothenate [CP, reference compound]”, in data set [3], the Disintegration time is listed as less than 1 s and the “Dissolution time (mean ± sdv)” value is 6 ± 1 s. For the same compound, in data set [4], the “Glass transition” value is -25.28 °C. In addition, the “Ph. Eur. method Hygroscopicity” value in data set [2] is listed as 22.02 %(m/mo.

These data come from EP2884284A1, “Dry diagnostic reagent” (priority 2013, dated 2015).
